Test results as given in ChEMBL document CHEMBL1201862, “PubChem BioAssay data set” (2004).
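Step 1: Grow cells in 96-well plates. Step 2: Expose to compound for 48 hours at 5 concentrations. Step 3: Interpolate endpoints linearly; if unreached, use highest concentration. GI50: concentration for 50% inhibition of growth.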 Calls of active or inactive are those of the source. Cut-off read from the data, not from the text of the source: active = GI50 up to about 1.1 µM and inactive = higher.

Legend:
Assay in all cases: NCI tumour cell line growth inhibition, 48 h
KM12 = tested on: KM12
OVCAR-5 = tested on: OVCAR-5
HL-60 = tested on: HL-60
MCF7 = tested on: MCF7
MOLT-4 = tested on: MOLT-4
SNB-19 = tested on: SNB-19
NCI-H23 = tested on: NCI-H23
PC-3 = tested on: PC-3
HCT-116 = tested on: HCT-116
OVCAR-4 = tested on: OVCAR-4
LOX IMVI = tested on: LOX IMVI
MDA-N = tested on: MDA-N
RXF 393 = tested on: RXF 393
HOP-92 = tested on: HOP-92
UO-31 = tested on: UO-31
HCC 2998 = tested on: HCC 2998
COLO 205 = tested on: COLO 205

Measured: GI50

COc1ccc(C)cc1N1C(=O)C2ON(Cc3ccc(CC(N)=O)cc3)C(c3c4ccccc4c(Cl)c4ccccc34)C2C1=O (stereo not drawn)
inactive: KM12 14 µM | OVCAR-5 23.6 µM | HL-60 27.6 µM | MCF7 26.4 µM | MOLT-4 24.9 µM | SNB-19 32.1 µM | NCI-H23 29.3 µM | PC-3 28.1 µM | HCT-116 15.1 µM | OVCAR-4 24.3 µM | LOX IMVI 22.8 µM | MDA-N 14.6 µM | RXF 393 13.3 µM | HOP-92 32.6 µM | UO-31 25.7 µM

COc1ccc(-n2nnc(C(N)=O)c2O)cc1
inactive: KM12 > 100 µM | OVCAR-5 > 100 µM | HL-60 > 100 µM | MCF7 > 100 µM | HCC 2998 > 100 µM | MOLT-4 > 100 µM | SNB-19 > 100 µM | NCI-H23 > 100 µM | PC-3 > 100 µM | HCT-116 > 100 µM | OVCAR-4 > 100 µM | COLO 205 > 100 µM | LOX IMVI > 100 µM | MDA-N > 100 µM | RXF 393 > 100 µM | UO-31 32.3 µM

Cc1ccc(S(=O)(=O)CC2CCCn3c2c(C#N)c2ccccc23)cc1 (stereo not drawn)
inactive: KM12 > 100 µM | OVCAR-5 > 100 µM | MCF7 > 100 µM | HCC 2998 > 100 µM | MOLT-4 > 100 µM | SNB-19 > 100 µM | NCI-H23 > 100 µM | PC-3 54.2 µM | HCT-116 > 100 µM | OVCAR-4 > 100 µM | COLO 205 > 100 µM | LOX IMVI > 100 µM | RXF 393 > 100 µM | HOP-92 > 100 µM | UO-31 > 100 µM

COC(=O)C1=C(C(=O)OC)C2(/N=C(\Nc3ccccc3)c3ccccc3)N(c3ccc(OC)cc3)CC(c3ccccc3)N2O1 (stereo not drawn)
inactive: KM12 > 100 µM | OVCAR-5 > 100 µM | HL-60 > 100 µM | MCF7 > 100 µM | MOLT-4 > 100 µM | SNB-19 > 100 µM | NCI-H23 > 100 µM | PC-3 > 100 µM | HCT-116 > 100 µM | OVCAR-4 > 100 µM | COLO 205 > 100 µM | LOX IMVI > 100 µM | MDA-N > 100 µM | RXF 393 > 100 µM | HOP-92 53.6 µM | UO-31 > 100 µM

O=S(=O)(O)c1ccc2c(/N=N/c3ccccc3Cl)c(O)ccc2c1
inactive: KM12 > 100 µM | OVCAR-5 > 100 µM | MOLT-4 > 100 µM | SNB-19 > 100 µM | NCI-H23 > 100 µM | PC-3 > 100 µM | HCT-116 > 100 µM | OVCAR-4 > 100 µM | COLO 205 > 100 µM | LOX IMVI > 100 µM | MDA-N > 100 µM | RXF 393 > 100 µM | HOP-92 > 100 µM | UO-31 > 100 µM

CCOC(=O)/C1=C(\C)N(c2ccc(C)cc2)C(=O)c2ccccc2C(=O)c2c(O)ccc(O)c21
inactive: KM12 23 µM | OVCAR-5 30.2 µM | HL-60 19.1 µM | MCF7 15.2 µM | HCC 2998 16.5 µM | MOLT-4 14.5 µM | SNB-19 47.5 µM | NCI-H23 24.7 µM | PC-3 24.7 µM | HCT-116 19.5 µM | OVCAR-4 3.66 µM | COLO 205 20.1 µM | LOX IMVI 16.7 µM | RXF 393 23.2 µM | HOP-92 22.7 µM | UO-31 27.7 µM

CC(=O)Oc1c2oc3cc(O)c(O)cc3c2c(OC(C)=O)c2oc3cc(O)c(O)cc3c12 [POLYOZELLIN]
inactive: KM12 20.3 µM | OVCAR-5 25.5 µM | HL-60 3.08 µM | HCC 2998 16.9 µM | MOLT-4 2.64 µM | SNB-19 23.7 µM | NCI-H23 2.39 µM | PC-3 19.8 µM | HCT-116 18.7 µM | OVCAR-4 19.8 µM | COLO 205 15.4 µM | LOX IMVI 24.5 µM | MDA-N 23.6 µM | RXF 393 18.1 µM | UO-31 21 µM

CC(=O)OC(C)(C)[C@H]1O[C@]23O[C@]1(C)C[C@@H](C)[C@@H]2[C@@]1(C)CC[C@@]24C[C@@]25CC[C@H](O[C@@H]2OC[C@@H](O)[C@H](O)[C@H]2O)C(C)(C)[C@@H]5CC[C@H]4[C@]1(C)[C@H]3O
inactive: KM12 3.35 µM | OVCAR-5 11.8 µM | HL-60 2.03 µM | MCF7 5.38 µM | HCC 2998 9.93 µM | MOLT-4 5.32 µM | SNB-19 6.27 µM | NCI-H23 4.84 µM | PC-3 4.65 µM | HCT-116 6.67 µM | OVCAR-4 3.95 µM | COLO 205 9.12 µM | LOX IMVI 3.27 µM | RXF 393 3.36 µM | HOP-92 9.02 µM | UO-31 14.6 µM
